From patent US11666598B2 (priority 2019, dated 2023)

Legend:
[1] = system: murine bone marrow derived macrophages (BMDM); test: Cytokine quantification in stimulated bone marrow derived macrophages; format: cell-based, C57BL/6 mice; conditions: 12 hr pretreatment, then LPS or LPS+IFNγ 12 hr; vs PLGA and insert free controls
Experimental: For experiments, cells were seeded at 90 000 cells cm^−2 in 6 well culture plates. […] Unstimulated cells treated with identical groups were used as a negative control.
Cytokine quantification was conducted on cell supernatants using a mouse 10-plex pro-inflammatory assay or an interferon beta single plex assay (Eve Technologies, Calgary, AB) and calculated using their standard curve. Nitrite content was determined using a Greiss Reagent Kit.

Escherichia coli (BL21) = test: In vitro E. coli bacterial growth assessment (optical density 600 nm); format: cell-based; conditions: soluble; rich media (LB broth)
Experimental: Escherichia coli (BL21) was expanded overnight in LB broth, then seeded (1:100) in fresh medium according to growth conditions. Experiments were carried out in modified M9 minimal medium supplemented with appropriate carbon source (Acetate: 1%, Glucose 0.4%) or LB broth (Lennox). Time course assessment of soluble small molecule inhibition was conducted in 96-well culture plates fitted with a breathable film to encourage aeration and cultured for indicated time with incremental optical density measurement (600 nm). Growth media containing solubilized acid was neutralized with sodium hydroxide (pH=7.0).
To determine polymer antimicrobial properties in solution, six well plates were cast with equal mass polymer samples and polymer free culture plate (polystyrene) controls. […] Silver nanoparticles (10 nm) and PLLA (Mn=85-110 kDa, Sigma) were used as positive and negative controls respectively. Soluble assessment of DMI was conducted using the method described for polymer samples using a 12 well plate format (1.5 mL/well).

isocitrate lyase (ICL) = conditions: under glucose deprived conditions; cited from earlier work

SMILES	IL-6 [1]	concentration showing sensitivity on rich media (Escherichia coli (BL21))	inhibition of isocitrate lyase (ICL) (isocitrate lyase (ICL))
C=C(CC(=O)OC)C(=O)OC [DMI, dimethyl itaconate]	marked	> 7.5 mM	–
C=C(CC(=O)O)C(=O)O [ITA, itaconic acid]	–	–	potent inhibitor
